# According to patent US9999656B2, “Treatment of short bowel syndrome patients with colon-in-continuity” (Shire-NPS Pharmaceuticals, Inc., priority 2004, dated 2018):
# Tests used:
# [1] = tested on: intestinal mucosa of SBS patients; experiment: Morphological analysis of intestinal biopsies (villus height, crypt depth, mitotic index); assay type: in vivo, human
# Method: Endoscopic examinations were performed in each subject at the completion of baseline, treatment and follow-up phases. All tissue samples for measurement of villus height and crypt depth were prepared and analyzed in a blinded fashion by the same pathologist. Villus height and crypt depth were measured using light microscopy (eyepiece micrometer) as the mean of ten well-oriented villi and crypts. The number of mitotic figures per 100 crypt epithelial cells was calculated.
# [2] = Half-life / AUC (pharmacokinetics); assay type: in vivo
# Method: This greater effect could be related to differences in dose and half-life of GLP-2 and teduglutide, respectively. In the pilot study with native GLP-2, 400 μg was given twice daily (corresponding to 0.013±0.002 mg/kg/day, a range of 0.011-0.017 mg/kg/day). The teduglutide doses in the current study were 3-10 times higher, ranging from 0.03 to 0.15 mg/kg/day. […] If area under the curve (AUC) is critical for the wet weight absorption effect, the AUC during teduglutide treatment may well be 200 times greater than the AUC when using native GLP-2. In this study, effects of teduglutide on energy and macronutrient absorption were minor compared to effects on wet weight absorption. […] Nonetheless, the effect of teduglutide on absolute energy absorption is 1.5 to 4-fold higher than with native GLP-2 (441±634 kJ/day ([105±151 kcal/day] p=0.09) at the given doses and treatment periods. Thus, in contrast to H2-receptor antagonists, proton-pump inhibitors and octreotide that only affect wet weight absorption, native GLP-2 and teduglutide seem to affect both intestinal wet weight and energy absorption, with an additional positive effect on wet weight absorption in patients already treated with these non-GLP-2 agonists.
# [3] = jejunum / small intestine biopsies, Group 2 end-jejunostomy
smiles,measurement,setting,value
"CC[C@H](C)[C@H](NC(=O)[C@H](Cc1ccccc1)NC(=O)[C@H](CC(=O)O)NC(=O)[C@H](CCCNC(=N)N)NC(=O)[C@H](C)NC(=O)[C@H](C)NC(=O)[C@H](CC(C)C)NC(=O)[C@H](CC(N)=O)NC(=O)[C@H](CC(=O)O)NC(=O)[C@H](CC(C)C)NC(=O)[C@@H](NC(=O)[C@@H](NC(=O)[C@H](CC(N)=O)NC(=O)[C@H](CCSC)NC(=O)[C@H](CCC(=O)O)NC(=O)[C@H](CC(=O)O)NC(=O)[C@H](CO)NC(=O)[C@H](Cc1ccccc1)NC(=O)[C@H](CO)NC(=O)CNC(=O)[C@H](CC(=O)O)NC(=O)CNC(=O)[C@@H](N)Cc1c[nH]cn1)[C@@H](C)O)[C@@H](C)CC)C(=O)N[C@@H](CC(N)=O)C(=O)N[C@@H](Cc1c[nH]c2ccccc12)C(=O)N[C@@H](CC(C)C)C(=O)N[C@H](C(=O)N[C@@H](CCC(N)=O)C(=O)N[C@H](C(=O)N[C@@H](CCCCN)C(=O)N[C@H](C(=O)N[C@H](C(=O)N[C@@H](CC(=O)O)C(=O)O)[C@@H](C)O)[C@@H](C)CC)[C@@H](C)O)[C@@H](C)CC [teduglutide, [Gly2]hGLP-2]",sets of colonic biopsies with increased crypt depth,[1]; Group 3 colon-in-continuity,four of five
same,increase in mitotic index (colonic biopsies),"[1]; colonic biopsies, Group 3 colon-in-continuity, not significant (p=0.170)",76±112%
same,mean increase in colonic crypt depth,"[1]; colonic biopsies, Group 3 colon-in-continuity, not significant (p=0.330)",13±22%
same,increase in crypt depth,[1]; [3],22±18%
same,increase in mitotic index,[1]; [3],115±108%
same,increase in villus height,[1]; [3],38±45%
same,number of patients with significant histological changes in the jejunum,[1]; of the 8 Group 2 patients who were biopsied,7
same,AUC during teduglutide treatment relative to AUC using native GLP-2,"[2]; 'may well be', estimate",~200 times
same,half-life,"[2]; human, plasma, teduglutide, approximately",0.9 to 2.3 h
